Experimental data: PubChem BioAssay (NCI)
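Test compounds were applied to cells in 96-well plates for 48 hours at 5 doses. Definition used: TGI = concentration required for complete inhibition of growth.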

Legend:
Test in all cases: NCI tumour cell line growth inhibition, 48 h
HL-60(TB) leukemia = tested on: HL-60(TB) leukemia
RXF 393 renal = tested on: RXF 393 renal
A549 NSCLC = tested on: A549 NSCLC
HT29 colon = tested on: HT29 colon
MDA-N = tested on: MDA-N
KM12 colon = tested on: KM12 colon
SK-MEL-5 melanoma = tested on: SK-MEL-5 melanoma
HOP-92 NSCLC = tested on: HOP-92 NSCLC
HCT-116 colon = tested on: HCT-116 colon
SNB-19 CNS = tested on: SNB-19 CNS

SMILES	TGI (HL-60(TB) leukemia) [µM]	TGI (RXF 393 renal) [µM]	TGI (A549 NSCLC) [µM]	TGI (HT29 colon) [µM]	TGI (MDA-N) [µM]	TGI (KM12 colon) [µM]	TGI (SK-MEL-5 melanoma) [µM]	TGI (HOP-92 NSCLC) [µM]	TGI (HCT-116 colon) [µM]	TGI (SNB-19 CNS) [µM]
C[C@]12CCC(=O)O[C@H]1CCCCO2	> 100	> 100	> 100	> 100	> 100	> 100	> 100	71.1	> 100	–
Cc1ccc(SCC(CF)OC(C)n2cnc3c(=O)[nH]c(N)nc32)cc1 (stereo not given)	> 100	–	> 100	> 100	> 100	> 100	47.6	> 100	> 100	> 100
C=CCCN1CCc2c([nH]c3ccccc23)C1C(=O)O (stereo not given)	> 100	> 100	> 100	> 100	–	> 100	> 100	> 100	> 100	> 100
O=C(O)Cc1cccc2c(=O)c3ccccc3oc12	> 100	–	> 100	> 100	> 100	> 100	> 100	> 100	> 100	> 100
CCCCN1C(=O)N(c2ccc(OCC)cc2)C2N(CCCC)C1C(C)(C)C2(C)C (stereo not given)	–	39.1	> 100	> 100	> 100	> 100	67.7	85.1	> 100	> 100
CCOC(=O)C(=Cc1[nH]c2ccccc2c1-c1c[nH]c2ccccc12)C(=O)OCC	–	23.3	35.9	17.5	26.5	18	29.2	23.5	22.8	28.3
O=Cc1ccc2c(c1)CC1(Cc3ccccc3C1)C2	39.5	> 100	> 100	51.2	38.9	> 100	29.4	32.9	> 100	–
NN/C(=N\S(=O)(=O)c1cc2ccccc2s1)Nc1ccc(Cl)cc1	48	29.6	39.8	38.9	–	48.1	31.8	39.6	30.6	64.6
CC(C)[Si](OC1=C(C(=O)N(C)c2cccc(Cl)c2)CCCC1)(C(C)C)C(C)C	26.3	18.9	19.9	31.1	34.4	26.5	34.2	25.4	–	31
O=C1/C(=N/O)Cc2c(Br)ccc(Br)c21	76.3	> 100	–	> 100	> 100	> 100	> 100	> 100	> 100	–
O=C1/C(=C/c2ccc([N+](=O)[O-])cc2)C(=O)N(c2ccccc2)C1c1ccccc1 (stereo not given)	> 10	> 10	> 10	> 10	> 10	> 10	> 10	–	> 10	> 10
COc1ccccc1/C=C1\SC(=S)N(/C=C2\C(=O)Oc3ccccc3C2=O)C1=O	–	–	> 100	> 100	> 100	> 100	51.4	64.8	> 100	> 100
Cc1ccc(N=Nc2c(O)ccc3cc(S(=O)(=O)O)cc(S(=O)(=O)O)c23)cc1	> 100	> 100	> 100	–	> 100	> 100	> 100	> 100	> 100	> 100
CCOP(C)(=O)C(N)Cc1ccc(OC)c(OC)c1 (stereo not given)	> 100	> 100	> 100	> 100	> 100	–	> 100	> 100	> 100	> 100
CCOC(=O)CNc1c(OCc2ccccc2)c(=O)c1=O	–	> 100	> 100	> 100	> 100	> 100	> 100	–	> 100	> 100
Oc1c(CN2CCOCC2)ccc2cccnc12	–	> 10	> 10	> 10	> 10	> 10	> 10	> 10	> 10	> 10
Cc1ccc2c(c1)C(C(=O)N[C@@H]1C(=O)N3[C@@H]1SC(C)(C)[C@@H]3C(=O)O)OCCC2 (stereo not given in full)	> 100	> 100	> 100	> 100	–	> 100	> 100	> 100	> 100	> 100
Cc1cccc(N=NC(=O)NNc2cccc(C)c2C)c1C	57.1	–	> 100	> 100	> 100	–	> 100	–	72.2	> 100
N#CC(NC12CC3CC(CC(C3)C1)C2)c1ccccc1C(F)(F)F (stereo not given)	> 100	> 100	> 100	> 100	–	> 100	> 100	–	> 100	> 100
Oc1ccc(-c2nc(-c3cccnc3)c(-c3ccc(Cl)cc3)[nH]2)cc1	36.7	26.5	30.1	28.4	26.3	25.7	27.2	–	31.6	31.2
CC1NC(=O)CC(c2ccccc2)N(N=O)C1c1ccccc1 (stereo not given)	> 67.2	53.5	> 100	> 100	–	> 100	> 100	> 100	> 100	> 91.3
COC1C=CC(O)C(CO)O1 (stereo not given)	> 100	> 100	> 100	> 100	–	> 100	> 100	> 100	> 100	–
COC1=C(OC)C(=O)C(Cc2c(C)nc3sc(C)cn23)=C(C)C1=O	29.8	42.4	49.5	40.6	32.4	55.5	28.6	–	49.9	36.5
